Reference: patent US20050101595A1, “N-containing cycloalkyl-substituted amino-thiazole derivatives and pharmaceutical compositions for inhibiting cell proliferation and methods for their use” (PFIZER INC., priority 2003, published 2005)
Read-outs that look alike come from different tables or passages of the source.

Assays:
HCT-116 cell line = test: Inhibition of cell growth, tetrazolium salt (MTT) assay; assay type: cell-based; details: for HCT-116 % Inhibition at 0.25 μM: 0.25 μM compound; for IC50: Homo sapiens, HCT-116, 120 h, MTT, three to five days, read-out: HCT-116 IC50
Procedure, shortened: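 HCT-116 cells in McCoy's 5A medium received compound 4 h after plating (0.5% v/v DMSO) and were incubated three to five days at 37° C, 5% CO2. MTT (0.2 mg/mL final) then added for 4 h; DMSO-solubilized formazan read at 540 nm against 0.5% DMSO-treated controls.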

[1] = target: human CDK4 and genetically truncated (1-264) cyclin D3 (Homo sapiens, UniProt P11802); test: Inhibition of CDK4/Cyclin D Retinoblastoma Kinase Activity; assay type: biochemical; details: for Ki: apparent Ki, CDK4/truncated cyclin D3, Rb fragment substrate, 25 μM ATP
human CDK4 and genetically truncated (1-264) cyclin D3, sequence (P11802 whole entry, the tested form may be a part): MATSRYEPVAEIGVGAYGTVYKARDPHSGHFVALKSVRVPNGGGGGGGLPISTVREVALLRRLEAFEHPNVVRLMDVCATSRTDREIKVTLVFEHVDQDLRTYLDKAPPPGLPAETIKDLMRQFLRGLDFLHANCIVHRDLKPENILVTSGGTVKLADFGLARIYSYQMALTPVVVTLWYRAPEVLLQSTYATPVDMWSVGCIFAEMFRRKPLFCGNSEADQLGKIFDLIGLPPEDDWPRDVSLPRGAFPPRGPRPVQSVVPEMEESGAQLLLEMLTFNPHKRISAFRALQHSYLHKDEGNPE
human CDK4 and genetically truncated (1-264) cyclin D3, sequence (P30281 1-264 partner): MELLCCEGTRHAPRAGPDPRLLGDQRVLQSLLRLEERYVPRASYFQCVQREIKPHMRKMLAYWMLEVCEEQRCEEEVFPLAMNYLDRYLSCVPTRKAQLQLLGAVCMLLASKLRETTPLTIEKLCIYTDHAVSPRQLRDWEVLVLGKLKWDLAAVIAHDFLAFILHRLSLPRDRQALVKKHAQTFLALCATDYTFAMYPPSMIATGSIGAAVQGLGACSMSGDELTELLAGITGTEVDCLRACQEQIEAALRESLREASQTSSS
Procedure, shortened: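 Human CDK4/truncated cyclin D3 (1-264) complex from baculovirus-infected insect cells, 5 nM, phosphorylating Rb fragment (residues 386-928, His-tagged) with 25 μM [32/33P]ATP in HEPES pH 7.4, MgCl2, 2% DMSO at 30° C. for 20 min (60 min for tight binders). Filter-captured radioactivity by phosphorimager; apparent Ki from competitive or tight-binding fits.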

CDK2/Cyclin A = CDK2/Cyclin A (Homo sapiens, UniProt P24941); test: Inhibition of CDK2/Cyclin A Retinoblastoma Kinase Activity; assay type: biochemical; details: for Ki: apparent Ki, CDK2/proteolyzed cyclin A, Rb fragment substrate, 25 μM ATP
Procedure, shortened: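 Baculovirus-expressed CDK2 complexed with proteolyzed cyclin A (10 or 19 nM), Rb fragment substrate, 25 μM [32P/33P]ATP, HEPES pH 7.4, 30 °C for 60 or 75 min under initial-rate conditions. Filter capture and phosphorimager readout; apparent Ki fitted to competitive or tight-binding competitive inhibition.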

[2] = 0.1 μM compound, HCT-116, Table 3

Row | Compound | IC50 (HCT-116 cell line; first HCT-116 column (c4)) [nM] | IC50 (HCT-116 cell line; second HCT-116 column (c5)) [nM] | Ki [1] [nM] | Ki (CDK2/Cyclin A) [nM] | HCT-116 % Inhibition at 0.1 μM (HCT-116 cell line; HCT-116 cells, at 0.1 μM) [%] | HCT-116 5 Inhibition at 0.25 μM (HCT-116 cell line; HCT-116 cells) | CDK4 % Inhibition at 0.03 μM ([1]; at 0.03 μM) [%] | CDK2 % Inhibition at 0.03 μM (CDK2/Cyclin A; at 0.03 μM) [%] | also measured
1 | Cc1cccc(S(=O)(=O)N2CCC(Nc3nc(N)c(C(=O)c4c(F)cccc4F)s3)CC2)c1 [Example P37] |  |  |  |  |  |  |  |  | HCT-116 % Inhibition at 0.1 μM (HCT-116 cell line; [2]): 0%; HCT-116 % Inhibition at 0.25 μM (HCT-116 cell line; HCT-116, Table 3): 27%; CDK4 % Inhibition at 0.03 μM ([1]; 0.03 μM compound, Table 3): 65%; CDK2 % Inhibition at 0.03 μM (CDK2/Cyclin A; 0.03 μM compound, Table 3): 58%
2 | Nc1nc(NC2CCN(C(=O)c3ccncc3)CC2)sc1C(=O)c1c(F)cccc1F [Example C13] | 2800 | 5000 | 18 | 53 |  |  |  |  | 
3 | CC1(C(=O)N2CCC(Nc3nc(N)c(C(=O)c4c(F)cccc4F)s3)CC2)CCCCC1 [Example R99] |  |  |  |  | 5 | 49 | −4 | −5 | 
4 | Nc1nc(NC2CCN(C(=O)c3ccc(F)c(Cl)c3)CC2)sc1C(=O)c1c(F)cccc1F [Example D8, 1-(4-Amino-2-{1-[1-(3-chloro-4-fluoro-phenyl)-methanoyl]-piperidin-4-ylamino}-thiazol-5-yl)-1-(2,6-difluoro-phenyl)-methanone] | 97 | 250 | 9.6 | 99 |  |  |  |  | 
5 | Nc1nc(NC2CCN(S(=O)(=O)c3ccc(-c4ncc[nH]4)cc3)CC2)sc1C(=O)c1c(F)cccc1F [Example F34] | 1500 | 2600 | 0.51 | < 1 |  |  |  |  | 
6 | Nc1nc(NC2CCN(C(=O)c3ccc(OC(F)(F)F)cc3)CC2)sc1C(=O)c1c(F)cccc1F [Example R22] |  |  |  |  | 7 | 48 | 58 | 22 | 
7 | CS(=O)(=O)c1ccc(S(=O)(=O)N2CCC(Nc3nc(N)c(C(=O)c4c(F)cccc4F)s3)CC2)cc1 [Example F12, 1-{4-Amino-2-[1-(4-methanesulfonyl-benzenesulfonyl)-piperidin-4-ylamino]-thiazol-5-yl}-1-(2,6-difluoro-phenyl)-methanone] | 190 | 500 | 1.3 | 0.37 |  |  |  |  | 
8 | CCCCCc1ccc(C(=O)N2CCC(Nc3nc(N)c(C(=O)c4c(F)cccc4F)s3)CC2)cc1 [Example R158] |  |  |  |  | 0 | 41 | 44 | 24 | 
9 | COc1ccc(C(=O)N2CCC(Nc3nc(N)c(C(=O)c4c(F)cccc4F)s3)CC2)cc1 [Example R148] |  |  |  |  | 0 | 42 | 49 | 20 | 
10 | Nc1nc(NC2CCN(S(=O)(=O)c3ccc(-c4ccccn4)s3)CC2)sc1C(=O)c1c(F)cccc1F [Example F6, 1-{4-Amino-2-[1-(5-pyridin-2-yl-thiophene-2-sulfonyl)-piperidin-4-ylamino]-thiazol-5-yl}-1-(2,6-difluoro-phenyl)-methanone] | 170 | 450 | 0.46 | 0.43 |  |  |  |  | 
11 | Nc1nc(NC2CCN(S(=O)(=O)CCN(CC3CC3)CC3CC3)CC2)sc1C(=O)c1c(F)cccc1F [Example K54, (4-Amino-2-{1-[2-(bis-cyclopropylmethyl-amino)-ethanesulfonyl]-piperidin-4-ylamino}-thiazol-5-yl)-(2,6-difluoro-phenyl)-methanone] | 280 | 800 | 1.3 | 5 |  |  |  |  | 
12 | Nc1nc(NC2CCN(S(=O)(=O)c3ccc(Oc4ccc(I)cc4)cc3)CC2)sc1C(=O)c1c(F)cccc1F [Example P86] |  |  |  |  |  |  |  |  | HCT-116 % Inhibition at 0.1 μM (HCT-116 cell line; [2]): 7%; HCT-116 % Inhibition at 0.25 μM (HCT-116 cell line; HCT-116, Table 3): 26%; CDK4 % Inhibition at 0.03 μM ([1]; 0.03 μM compound, Table 3): 51%; CDK2 % Inhibition at 0.03 μM (CDK2/Cyclin A; 0.03 μM compound, Table 3): 38%
13 | Nc1nc(NC2CCN(C(=O)c3c(F)cccc3F)CC2)sc1C(=O)c1c(F)cccc1F [Example R105] |  |  |  |  | 0 | 44 | 9 | 8 | 
14 | CN(C)CC(=O)N1CCC(Nc2nc(N)c(C(=O)c3c(F)cccc3F)s2)CC1 [Example D2, (4-[4-Amino-5-(2,6-difluoro-benzoyl)-thiazol-2-ylamino}-piperidin-1-yl)-2-dimethylamino-ethanone] | 1900 | 5000 | 120 | 1300 |  |  |  |  | 
